Measurements from ChEMBL document CHEMBL5053539, “THC shows activity against cultured Plasmodium falciparum” (Bioorg Med Chem Lett, 2021).

How the values were obtained:
Plasmodium falciparum [1] = test: Antiplasmodial activity against chloroquine-sensitive Plasmodium falciparum NF54; type: functional, organism-based
Hemozoin = test: Inhibition of Beta-hematin in Plasmodium falciparum cells assessed as hemozoin formation after 32 hrs by NP40 detergent-mediated assay
Plasmodium falciparum [2] = test: Antiplasmodial activity against multidrug-resistant Plasmodium falciparum K1; type: functional, organism-based

Row | SMILES | IC50 (Plasmodium falciparum [1]) [µM] | IC50 (Hemozoin) [µM] | IC50 (Plasmodium falciparum [2]) [µM]
1 | C=C(C)[C@@H]1CCC(C)=C[C@H]1c1c(O)cc(CCCCC)cc1O [CANNABIDIOL] | 4.1 | 51.1 | –
2 | CCN(CC)CCCC(C)Nc1ccnc2cc(Cl)ccc12 (stereo unspecified) [CHLOROQUINE] | – | 16.8 | –
3 | CCCCCc1cc(O)c2c(c1)OC(C)(C)[C@@H]1CCC(C)=C[C@@H]21 [DRONABINOL] | 0.79 | 11.3 | 0.72
